Laboratory results published in patent US20260256135A1, “SOLVENT COMPOSITION FOR AGROCHEMICAL FORMULATIONS” (SPECIALTY OPERATIONS FRANCE, priority 2023, published 2026).

Assay: Test 1: maximal solubility of an active (solo) in a solvent system, visual observation
Assay type: physicochemical
Conditions: active dissolved in the solvent system; limpid with the naked eye
Text: The maximal solubility of an active or a combo of actives in a solvent system is characterized by visual observation. At a given concentration, if the mixture is limpid (with the naked eye), the active ingredient(s) is (are) considered to be soluble in the solvent system at this concentration. However, if a sedimentation of the active ingredient(s) appears, it is not soluble anymore in the solvent system and the maximal solubility is reached. The maximal solubility is thus defined as the maximum amount of active ingredient(s) that can be dissolved in the solvent system, equal to the amount at which the mixture remains limpid (with the naked eye). Each active ingredient or combo is added little by little in different solvent systems. The solutions are magnetically stirred until complete dissolution. Then an additional amount of active ingredient is added and this operation is repeated until the last part of active ingredient added could not be dissolved anymore, taking care to stir the solution after each addition of active ingredient.

SMILES	maximal solubility of Difenoconazole	maximal solubility of Picoxystrobin	maximal solubility of Pinoxaden
CCCCOC(=O)CCC(C)=O [GFbio ReSolv 200, n-butyl levulinate]	44.5 g/100 g of solvent	27.3 g/100 g of solvent	11.4 g/100 g of solvent
COC(=O)C(C)CCC(=O)N(C)C (stereo not drawn) [Rhodiasolv ® Polarclean, methyl-5-(dimethylamino)-2-methyl-5-oxopentanoate]	65.5 g/100 g of solvent	43.9 g/100 g of solvent	13.0 g/100 g of solvent
